Four compounds from PMC10081574, “Evaluation of Antiviral Activity of Gemcitabine Derivatives against Influenza Virus and Severe Acute Respiratory Syndrome Coronavirus 2” (ACS Infectious Diseases, 2023) can be followed below.

Molecules are shown by their SMILES. Like-named read-outs stand apart in the source and are kept apart here. Some results are limits rather than exact numbers.

Series [1] concerns A/Hong Kong/8/68 (H3N2). Particulars: for SI90 HK: ratio of CC10 to EC90; for SI50 HK: ratio of CC50 to EC50.
In series [2] the test system is A/Puerto Rico/8/34 (H1N1). Particulars: for SI90 PR8: ratio of CC10 to EC90; for SI50 PR8: ratio of CC50 to EC50.
The subject of a further series is B/Lee/40. The experiment in a line: CPE reduction antiviral assay in Lee-infected MDCK cells (MTT). The format is cell-based, influenza B virus. The note with it: for EC50 / EC90: Influenza B virus, MDCK, 72 h; for EC50: viability of infected cells to 50%; for EC90: read-out: EC90 Lee; for SI50 Lee: ratio of CC50 to EC50; for SI90 Lee: ratio of CC10 to EC90.
Another series in a line: in vitro. Particulars: dog.
Series [3] has as its system influenza A and B viruses. The experiment in a line: CPE reduction antiviral assay, values summarised over influenza strains PR8, HK and Lee. The format is cell-based, influenza virus. The note with it: for EC90 / EC50: span over PR8, HK and Lee; for EC90: read-out: EC90 against influenza viruses; for EC50: read-out: EC50 against influenza viruses; for SI90 against influenza viruses / SI50 against influenza viruses: over PR8, HK and Lee; for SI90 against influenza viruses: CC10/EC90; for SI50 against influenza viruses: CC50/EC50.

In series [4] the test system is A/Hong Kong/8/68 (H3N2). The experiment in a line: microbe, parasite or virus in culture. Particulars: Influenza A virus, H3N2, MDCK, 72 h; for EC50: read-out: EC50 HK; for EC90: read-out: EC90 HK; for viability at 10 µM: read-out: viability of HK-infected cells in library screening.
Series [5] concerns A/Puerto Rico/8/34 (H1N1). Nature of the series: microbe, parasite or virus in culture. Particulars: Influenza A virus, 72 h; for EC50 / EC90: H1N1 / PR8, MDCK; for EC50: read-out: EC50 PR8; for EC90: read-out: EC90 PR8; for viability at 10 µM: H1N1|PR8, MDCK, read-out: viability of PR8-infected cells in library screening.
Where [6] appears, read: Influenza A virus, PR8, MDCK, MDCK.
Where [7] appears, read: MOI 0.001, day 3, viability of infected cells to 90%.
Setting [8] is: MOI 0.001, day 3, read-out: EC50 Lee.

As for `O=C(Nc1ccn([C@@H]2O[C@H](CO)[C@@H](O)C2(F)F)c(=O)n1)c1ccccc1` [Compound 1], in the series on A/Hong Kong/8/68 (H3N2) [1], the “SI90 HK” value is > 3.1 and the “SI50 HK” value is recorded as > 5.5. Also, in series [2], the “SI90 PR8” value is recorded as > 3.9 and the “SI50 PR8” value is recorded as > 6.9. The EC50 in series [2] (read-out: EC50 PR8) was determined as 43.5 ± 8.6 µM. In addition, the 50% effective concentration (EC50) in the series on B/Lee/40 (read-out: EC50 Lee, MDCK, MOI 0.001, day 3) was 22.5 ± 0.4 µM. In addition, in the series on B/Lee/40, the EC90 turned out to be 78.7 ± 2.7 µM and the “SI50 Lee” value is > 13.3. The CC50 at 3 days in the series “in vitro” is > 300 µM. Besides, the concentration for an effect of 90% (EC90) in series [3] (setting [6]) fell in the range of 76.2 to 98.1 µM. Moreover, the EC50 in series [3] (Influenza A virus, MDCK) is 22.5 to 54.2 µM. The “subtoxic concentration at which over 90% viability of infected cells was recorded” value in series [3] (MDCK, day 3) worked out at 100 µM. Moreover, in series [3], the “SI90 against influenza viruses” value is > 1.9 and the “SI50 against influenza viruses” value was > 5.5. Moreover, in the series with A/Hong Kong/8/68 (H3N2) [4], the concentration for a half-maximal effect (EC50) is 54.2 ± 5.1 µM, the EC90 came out at 98.1 ± 0.2 µM and the viability at 10 µM is 10 to 20%. Besides, in series [5], the EC50 was 43.4 ± 8.6 µM, the EC90 was found to be 76.2 ± 30.9 µM and the viability at 10 µM lay within 10 to 20%.
For the compound `O=C(Nc1ccn([C@@H]2O[C@H](CO)[C@@H](O)C2(F)F)c(=O)n1)c1ccccn1` [Compound 2a], the “SI90 HK” value with A/Hong Kong/8/68 (H3N2) [1] is recorded as 7.1. In addition, in the series with A/Hong Kong/8/68 (H3N2) [1], the “SI50 HK” value was > 462.2. The “SI90 PR8” value in series [2] was found to be 5.5. For the same compound, the “SI50 PR8” value in series [2] is > 342.5. Moreover, the 90% effect concentration (EC90) in the series on B/Lee/40 (setting [7]) was 2.2 ± 0.8 µM; in series [3] (setting [6]) it was 1.4 to 2.2 µM; in series [3] (MDCK), 1.4 to 16.9 µM; in the series with A/Hong Kong/8/68 (H3N2) [4] it was 1.4 ± 0.1 µM; in series [5], 1.8 ± 0.5 µM. Further, the EC50 in the series on B/Lee/40 (setting [8]) was 0.6 µM; in series [3] (Influenza A virus, MDCK), 0.6 to 0.9 µM; in the series on A/Hong Kong/8/68 (H3N2) [4], 0.6 µM; in series [5], 0.9 ± 0.2 µM. Also, the “SI90 Lee” value in the series on B/Lee/40 is listed as 4.4. Further, the “SI50 Lee” value in the series with B/Lee/40 is given as > 495.7. In addition, the CC50 at 3 days in the series “in vitro” was > 300 µM. For the same compound, the “subtoxic concentration at which over 90% viability of infected cells was recorded” value in series [3] (MDCK, day 3) turned out to be 3.7 µM. The “SI90 against influenza viruses” value in series [3] is on record as 4.4–7.1. In addition, the “SI50 against influenza viruses” value in series [3] is > 342.5. Besides, the viability at 10 µM (in the series with A/Hong Kong/8/68 (H3N2) [4]; in series [5]) was > 50% throughout.
With `O=C(Nc1ccn([C@@H]2O[C@H](CO)[C@@H](O)C2(F)F)c(=O)n1)c1ccc(F)cn1` [Compound 2f], in the series on A/Hong Kong/8/68 (H3N2) [1], the “SI90 HK” value is listed as > 28.0 and the “SI50 HK” value is listed as > 49.9. In addition, in series [2], the “SI90 PR8” value is > 11.1 and the “SI50 PR8” value is on record as > 41.6. The concentration for an effect of 90% (EC90) in the series on B/Lee/40 (setting [7]) was 25.7 ± 6.4 µM. Moreover, the EC50 in the series with B/Lee/40 (setting [8]) stood at 3.2 ± 2.3 µM. Moreover, in the series on B/Lee/40, the “SI90 Lee” value is > 11.7 and the “SI50 Lee” value is reported as > 94.8. In addition, the CC50 at 3 days in the series “in vitro” is > 300 µM. In addition, the 90% effect concentration (EC90) in series [3] (setting [6]) was in the range of 10.7 to 34.3 µM. Besides, the “SI90 against influenza viruses” value in series [3] is reported as > 8.7. Further, in the series with A/Hong Kong/8/68 (H3N2) [4], the concentration giving a half-maximal response (EC50) worked out at 6 ± 0.1 µM and the 90% effect concentration (EC90) was 10.7 ± 0.2 µM. In addition, in series [5], the EC50 amounted to 7.2 ± 0.4 µM and the 90% effect concentration (EC90) worked out at 26.9 ± 16.3 µM.
On to `Cc1ccc(C(=O)Nc2ccn([C@@H]3O[C@H](CO)[C@@H](O)C3(F)F)c(=O)n2)cn1` [Compound 3b], for which the “SI90 HK” value in the series with A/Hong Kong/8/68 (H3N2) [1] came to 7.3. In the series on A/Hong Kong/8/68 (H3N2) [1], the “SI50 HK” value is > 437.2. For the same compound, in series [2], the “SI90 PR8” value was 5.7. In series [2], the “SI50 PR8” value is > 325.8. Moreover, the concentration for an effect of 90% (EC90) in the series on B/Lee/40 (setting [7]) is 1.7 µM; in series [3] (setting [6]), 1.4 to 1.8 µM; with A/Hong Kong/8/68 (H3N2) [4] it was 1.4 ± 0.2 µM; in series [5], 1.8 ± 0.1 µM. Further, the EC50 in the series on B/Lee/40 (setting [8]) was 0.7 µM; with A/Hong Kong/8/68 (H3N2) [4] it was 0.7 µM; in series [5] it was 0.9 µM. Besides, the “SI90 Lee” value in the series on B/Lee/40 came to 6.0. The “SI50 Lee” value in the series on B/Lee/40 is on record as > 426.6. The CC50 at 3 days in the series “in vitro” was > 300 µM. For the same compound, the “recovery of viability of virus-infected cells with 90% cutoff” value in series [3] (MDCK, day 3) is reported as “active”.

A word on the EC50: it is the midpoint of the concentration-response curve. As a reminder, the EC90 is the concentration at which the effect reaches the 90% level. In general, viability refers to a per cent measure of how many cells are alive, often set against a control.
